Data published in the supplement of paper PMC8988213.
Structures can show the parent of a compound that is named as a salt.

Tests used:
[1] = system: ID188 patient-derived PDAC 2D line (pre-FOLFIRINOX); assay: normalised area under dose-response curve (viability relative to DMSO, 7 doses up to 10 µM) (fraction (AUC)); higher = less sensitive (more viability retained); conditions: 72 h; top dose: 10 µM
Summary of the method: (§1)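 SelleckChem library compounds were tested for 72 h at seven concentrations (3-fold steps, highest 10 µM) on patient-derived 2D PDAC cells grown out from organoids. These cells had been robotically placed at 1,500–3,000 cells/well in 96-well plates and incubated overnight at 37°C with 5% CO2, and luminescence from CellTiter-Glo was recorded after 10 min. The GRmetrics R package gave the area under the dose-response curve from viability normalised to control wells.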

[2] = system: ID211 patient-derived PDAC 2D line (post-FOLFIRINOX); assay: as above; conditions: 72 h; top dose: 10 µM
Summary of the method: as §1

Compound	normalised area under dose-response curve [1]	normalised area under dose-response curve [2]
C=CC(=O)Nc1cccc(Nc2nc(Nc3ccc(OCCOC)cc3)ncc2F)c1 [Spebrutinib (CC-292, AVL-292)]	0.709	0.888
Nc1ccc(S(=O)(=O)NC(=O)c2ccccc2)cc1 [Sulfabenzamide]	0.926	0.747
CNC(=O)c1ccc2cc([C@@]3(O)CCn4cncc43)ccc2c1 [TAK-700 (Orteronel)]	1	0.863
CC(C)CC(CC(=O)NO)C(=O)N[C@@H](Cc1ccc2ccccc2c1)C(=O)N[C@@H](C)C(=O)NCCN (stereo not given in full) [TAPI-1]	0.641	0.9
CNc1cc(-c2cccc(Cl)c2Cl)nc(N)n1 [TH287]	0.896	0.901
Nc1nc(NC2CC2)cc(-c2cccc(Cl)c2Cl)n1 [TH588]	0.914	0.918
C[C@H]1CNC(=O)c2cnn3ccc(nc23)N[C@H](C)c2cc(F)ccc2O1 [TPX-0005]	0.777	0.728
CCN(c1cc(-c2ccc(CN3CCOCC3)cc2)cc(C(=O)NCc2c(C)cc(C)[nH]c2=O)c1C)C1CCOCC1 [Tazemetostat (EPZ-6438)]	0.863	0.716
CC(C)(CO)c1cc2cc(NC(=O)C3(c4ccc5c(c4)OC(F)(F)O5)CC3)c(F)cc2n1C[C@@H](O)CO [Tezacaftor(VX-661)]	0.925	1.02
CCCCCCCCCCCCCC(=S)NCCCC[C@H](NC(=O)OCc1ccccc1)C(=O)Nc1ccccc1 [Thiomyristoyl]	0.925	0.787
Cn1cncc1[C@@](N)(c1ccc(Cl)cc1)c1ccc2c(c1)c(-c1cccc(Cl)c1)cc(=O)n2C [Tipifarnib]	0.913	0.832
CC[C@@]1(O)C(=O)OCc2c1cc1n(c2=O)Cc2cc3c(CN(C)C)c(O)ccc3nc2-1 [Topotecan HCl]	0.523	0.464
Cc1cc(Nc2cc(N3CCN(C)CC3)nc(Sc3ccc(NC(=O)C4CC4)cc3)n2)n[nH]1 [Tozasertib (VX-680, MK-0457)]	0.235	0.716
CC1=C(/C=C/C(C)=C/C=C/C(C)=C/C(=O)O)C(C)(C)CCC1 [Tretinoin]	1.12	0.841
NS(=O)(=O)c1ccc(NC(=O)Nc2ccc(F)cc2)cc1 [U-104]	0.94	0.976
COc1cc2nc(N3CCCC3)nc(NCCCCCN3CCCC3)c2cc1OC [UNC0379]	0.943	0.829
O=C(c1cncc(Br)c1)N1CCC(N2CCCC2)CC1 [UNC669]	0.922	0.946
O=C(c1ccc(C(=O)N2CCC(N3CCCC3)CC2)c(Nc2ccccc2)c1)N1CCC(N2CCCC2)CC1 [UNC1215]	0.931	0.951
CCCc1cc(C)[nH]c(=O)c1CNC(=O)c1cc(-c2ccc(N3CCN(C(C)C)CC3)nc2)cc2c1cnn2C(C)C [UNC1999]	0.932	0.786
CNCc1ccc(-c2cc(-c3nc(-c4ccc(S(=O)(=O)C(C)C)cc4)cnc3N)on2)cc1 [VE-822]	0.693	0.888
C=CC(=O)N1CC/C(=C\c2ccc(F)c([N+](=O)[O-])c2)C(=O)/C(=C/c2ccc(F)c([N+](=O)[O-])c2)C1 [VLX1570]	0.602	0.243
CC(C)(O)CNc1ncc(-c2ccnc(Nc3ccnc(Cl)c3)n2)c(CC2CC2)n1 [VPS34-IN1]	0.949	0.824
Cc1cccc(-c2[nH]c(CNc3ccccc3F)nc2-c2ccc3ncnn3c2)n1 [Vactosertib (TEW-7197)]	0.931	0.871

Compound	normalised area under dose-response curve [1]	normalised area under dose-response curve [2]
Clc1ccc(Nc2nnc(Cc3ccncc3)c3ccccc23)cc1 [Vatalanib (PTK787) 2HCl]	0.926	0.894
C[C@]1(c2nc3c(C(N)=O)cccc3[nH]2)CCCN1 [Veliparib (ABT-888)]	0.913	0.923
CCCS(=O)(=O)Nc1ccc(F)c(C(=O)c2c[nH]c3ncc(-c4ccc(Cl)cc4)cc23)c1F [Vemurafenib (PLX4032, RG7204)]	0.813	0.883
CC1(C)CCC(CN2CCN(c3ccc(C(=O)NS(=O)(=O)c4ccc(NCC5CCOCC5)c([N+](=O)[O-])c4)c(Oc4cnc5[nH]ccc5c4)c3)CC2)=C(c2ccc(Cl)cc2)C1 [Venetoclax (ABT-199, GDC-0199)]	0.928	0.887
CC[C@]1(O)C[C@H]2CN(CCc3c([nH]c4ccccc34)[C@@](C(=O)OC)(c3cc4c(cc3OC)N(C=O)[C@H]3[C@@](O)(C(=O)OC)[C@H](OC(C)=O)[C@]5(CC)C=CCN6CC[C@]43[C@@H]65)C2)C1 [Vincristine sulfate]	0.558	0.441
CCC1=C[C@@H]2CN(C1)Cc1c([nH]c3ccccc13)[C@@](C(=O)OC)(c1cc3c(cc1OC)N(C)[C@H]1[C@@](O)(C(=O)OC)[C@H](OC(C)=O)[C@]4(CC)C=CCN5CC[C@]31[C@@H]54)C2 [Vinorelbine Tartrate]	0.546	0.338
CS(=O)(=O)c1ccc(C(=O)Nc2ccc(Cl)c(-c3ccccn3)c2)c(Cl)c1 [Vismodegib (GDC-0449)]	0.926	0.84
CNC(=O)c1cccc(-c2ccc3c(N4CCOC[C@@H]4C)nc(N4CCOC[C@@H]4C)nc3n2)c1 [Vistusertib (AZD2014)]	0.723	0.765
CC[C@@H]1C(=O)N(C)c2cnc(Nc3ccc(C(=O)N[C@H]4CC[C@H](N5CCN(CC6CC6)CC5)CC4)cc3OC)nc2N1C(C)C [Volasertib (BI 6727)]	0.701	0.707
COc1ccc(N(C(=O)Oc2c(C)cccc2C)c2ccnc(Nc3ccc(N4CCN(C)CC4)cc3)n2)c(OC)c1 [WH-4-023]	0.929	0.935
COc1ccc(-n2c(SCCCN3C(=O)c4cccc5cccc(c45)C3=O)nnc2-c2ccncc2)cc1 [WIKI4]	0.837	0.85
CCC(=O)Nc1cccc(Oc2nc(Nc3ccc(N4CCN(C)CC4)cc3OC)ncc2Cl)c1 [WZ4003]	0.965	0.896
Oc1nc(-c2ccc(C(F)(F)F)cc2)nc2c1CSCC2 [XAV-939]	0.89	0.928
CN1c2ccccc2C(=O)Nc2cnc(Nc3ccc(N4CCC(O)CC4)cc3)nc21 [XMD16-5]	0.906	0.783
COc1cc(O)c(CC=C(C)C)c(O)c1C(=O)/C=C/c1ccc(O)cc1 [Xanthohumol]	0.943	0.926
COCC[n+]1c2c(n(Cc3cnccn3)c1C)C(=O)c1ccccc1C2=O [YM155 (Sepantronium Bromide)]	0.0409	0.279
Cc1cc(C)nc(NS(=O)(=O)c2ccc(NC(=S)NC(=O)COc3ccc(Br)cc3Cl)cc2)n1 [ZCL278]	0.928	0.777
FC(F)c1nc2ccccc2n1-c1nc(N2CCOCC2)nc(N2CCOCC2)n1 [ZSTK474]	0.712	0.642
COc1nc(C)cnc1NS(=O)(=O)c1cccnc1-c1ccc(-c2nnco2)cc1 [Zibotentan (ZD4054)]	0.96	0.955
CC(c1cc2ccccc2s1)N(O)C(N)=O (stereo not given) [Zileuton]	0.817	0.859
C=CC(=O)N1C/C(=C\c2ccc([N+](=O)[O-])cc2)C(=O)/C(=C/c2ccc([N+](=O)[O-])cc2)C1 [b-AP15]	0.504	0.671
Cc1cc(Nc2cc(N)ncn2)c(=O)n2c1C(=O)NC21CCCCC1 [eFT-508 (eFT508)]	0.977	1.01
